Like-named read-outs stand apart in the source and are kept apart here.
Assays:
Experiment in all cases: biochemical
[1] = molecular target: T1, panel of 374 wild-type kinases (Homo sapiens, UniProt Q9UL54); conditions: read-out: % Enzyme Activity (relative to DMSO controls), kinase TAOK2/TAO1
T1 construct: purchased Reaction Biology Corporation
T1 sequence (Q9UL54 1-1235): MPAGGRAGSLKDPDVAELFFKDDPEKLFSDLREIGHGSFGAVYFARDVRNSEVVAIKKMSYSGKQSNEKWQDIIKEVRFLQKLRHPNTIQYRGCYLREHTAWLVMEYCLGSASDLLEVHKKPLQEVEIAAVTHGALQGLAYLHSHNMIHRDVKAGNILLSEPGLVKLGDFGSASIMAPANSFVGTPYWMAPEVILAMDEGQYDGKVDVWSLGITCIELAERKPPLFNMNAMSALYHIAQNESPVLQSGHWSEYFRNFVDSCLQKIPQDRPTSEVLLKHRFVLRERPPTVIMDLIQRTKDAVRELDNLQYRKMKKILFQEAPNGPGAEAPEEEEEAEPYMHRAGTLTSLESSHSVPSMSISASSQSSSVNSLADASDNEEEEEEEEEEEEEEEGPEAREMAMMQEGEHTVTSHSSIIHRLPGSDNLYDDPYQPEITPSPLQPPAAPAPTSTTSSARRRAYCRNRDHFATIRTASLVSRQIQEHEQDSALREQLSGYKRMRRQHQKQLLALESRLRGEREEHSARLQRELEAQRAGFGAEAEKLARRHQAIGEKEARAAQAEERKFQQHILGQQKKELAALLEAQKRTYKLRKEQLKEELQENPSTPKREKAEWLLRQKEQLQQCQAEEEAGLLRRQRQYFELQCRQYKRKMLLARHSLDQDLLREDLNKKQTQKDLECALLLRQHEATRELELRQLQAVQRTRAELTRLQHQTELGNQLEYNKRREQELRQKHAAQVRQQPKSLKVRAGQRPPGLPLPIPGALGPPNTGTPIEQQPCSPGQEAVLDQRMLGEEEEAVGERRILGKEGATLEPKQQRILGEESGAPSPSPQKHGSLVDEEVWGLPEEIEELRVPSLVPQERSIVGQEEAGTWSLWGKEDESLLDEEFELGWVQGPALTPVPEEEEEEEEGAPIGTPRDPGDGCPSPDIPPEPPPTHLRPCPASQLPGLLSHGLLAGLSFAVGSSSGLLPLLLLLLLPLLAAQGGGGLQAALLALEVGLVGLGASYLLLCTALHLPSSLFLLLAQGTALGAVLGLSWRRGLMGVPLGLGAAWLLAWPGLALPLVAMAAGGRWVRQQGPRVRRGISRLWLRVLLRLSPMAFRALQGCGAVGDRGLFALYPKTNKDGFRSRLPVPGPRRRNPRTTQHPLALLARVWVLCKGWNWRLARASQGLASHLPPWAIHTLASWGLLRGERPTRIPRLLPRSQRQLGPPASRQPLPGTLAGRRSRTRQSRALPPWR

[2] = molecular target: T2, panel of 374 wild-type kinases (Homo sapiens, UniProt P45984); conditions: JNK2, read-out: % Enzyme Activity (relative to DMSO controls)
T2 construct: purchased Reaction Biology Corporation
T2 sequence (P45984 whole entry): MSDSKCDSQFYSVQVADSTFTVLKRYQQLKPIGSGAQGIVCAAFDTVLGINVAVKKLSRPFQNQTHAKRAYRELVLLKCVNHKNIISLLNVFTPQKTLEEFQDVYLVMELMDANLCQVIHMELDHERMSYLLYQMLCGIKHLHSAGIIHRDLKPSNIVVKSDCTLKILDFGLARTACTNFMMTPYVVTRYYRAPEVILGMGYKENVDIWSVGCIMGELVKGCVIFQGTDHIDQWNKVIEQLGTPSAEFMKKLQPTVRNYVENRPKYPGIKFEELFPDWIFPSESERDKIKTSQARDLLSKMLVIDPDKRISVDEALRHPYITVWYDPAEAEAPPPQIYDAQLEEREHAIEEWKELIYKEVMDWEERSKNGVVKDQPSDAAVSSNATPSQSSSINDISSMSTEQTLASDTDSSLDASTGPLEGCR

[3] = molecular target: T3, panel of 374 wild-type kinases (Homo sapiens, UniProt P08069); conditions: read-out: % Enzyme Activity (relative to DMSO controls), IGF1R
T3 construct: purchased Reaction Biology Corporation
T3 sequence (P08069 31-1367): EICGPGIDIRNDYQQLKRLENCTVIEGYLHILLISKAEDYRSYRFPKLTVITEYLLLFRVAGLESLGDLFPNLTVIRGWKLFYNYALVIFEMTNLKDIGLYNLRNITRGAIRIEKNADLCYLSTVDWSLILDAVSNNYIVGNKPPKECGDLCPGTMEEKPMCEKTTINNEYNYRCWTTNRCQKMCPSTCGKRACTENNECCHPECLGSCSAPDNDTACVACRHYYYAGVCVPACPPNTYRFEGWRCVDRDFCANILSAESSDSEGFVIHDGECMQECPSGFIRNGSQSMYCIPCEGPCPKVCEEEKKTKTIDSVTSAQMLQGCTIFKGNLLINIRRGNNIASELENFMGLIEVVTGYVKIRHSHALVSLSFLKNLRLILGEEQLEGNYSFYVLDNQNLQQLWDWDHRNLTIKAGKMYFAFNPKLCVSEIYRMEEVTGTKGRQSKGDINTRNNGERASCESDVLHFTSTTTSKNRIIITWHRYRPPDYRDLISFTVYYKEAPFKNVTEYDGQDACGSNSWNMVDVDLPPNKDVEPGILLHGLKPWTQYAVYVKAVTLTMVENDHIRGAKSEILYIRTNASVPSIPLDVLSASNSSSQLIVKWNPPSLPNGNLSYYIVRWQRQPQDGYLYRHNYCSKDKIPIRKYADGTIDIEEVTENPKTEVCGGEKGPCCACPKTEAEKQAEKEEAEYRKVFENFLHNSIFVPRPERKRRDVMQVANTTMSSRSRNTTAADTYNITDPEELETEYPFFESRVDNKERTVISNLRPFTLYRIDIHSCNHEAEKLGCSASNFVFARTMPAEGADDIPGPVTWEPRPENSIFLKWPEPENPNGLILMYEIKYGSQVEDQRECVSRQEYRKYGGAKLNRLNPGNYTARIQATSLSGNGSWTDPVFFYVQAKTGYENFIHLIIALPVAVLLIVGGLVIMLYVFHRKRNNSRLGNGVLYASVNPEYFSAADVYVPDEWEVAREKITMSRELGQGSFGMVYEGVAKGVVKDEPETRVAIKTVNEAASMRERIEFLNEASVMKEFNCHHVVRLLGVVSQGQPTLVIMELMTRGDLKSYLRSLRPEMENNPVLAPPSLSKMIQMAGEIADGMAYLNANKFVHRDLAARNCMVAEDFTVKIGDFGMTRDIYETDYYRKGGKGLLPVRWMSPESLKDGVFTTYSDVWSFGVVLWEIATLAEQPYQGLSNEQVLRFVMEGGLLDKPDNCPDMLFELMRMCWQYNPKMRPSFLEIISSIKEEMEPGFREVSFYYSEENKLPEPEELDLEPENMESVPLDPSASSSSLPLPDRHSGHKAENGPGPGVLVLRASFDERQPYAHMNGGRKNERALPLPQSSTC

[4] = molecular target: T4, panel of 374 wild-type kinases (Homo sapiens, UniProt Q9UBE8); conditions: read-out: % Enzyme Activity (relative to DMSO controls), NLK
T4 construct: purchased Reaction Biology Corporation
T4 sequence (Q9UBE8 1-527): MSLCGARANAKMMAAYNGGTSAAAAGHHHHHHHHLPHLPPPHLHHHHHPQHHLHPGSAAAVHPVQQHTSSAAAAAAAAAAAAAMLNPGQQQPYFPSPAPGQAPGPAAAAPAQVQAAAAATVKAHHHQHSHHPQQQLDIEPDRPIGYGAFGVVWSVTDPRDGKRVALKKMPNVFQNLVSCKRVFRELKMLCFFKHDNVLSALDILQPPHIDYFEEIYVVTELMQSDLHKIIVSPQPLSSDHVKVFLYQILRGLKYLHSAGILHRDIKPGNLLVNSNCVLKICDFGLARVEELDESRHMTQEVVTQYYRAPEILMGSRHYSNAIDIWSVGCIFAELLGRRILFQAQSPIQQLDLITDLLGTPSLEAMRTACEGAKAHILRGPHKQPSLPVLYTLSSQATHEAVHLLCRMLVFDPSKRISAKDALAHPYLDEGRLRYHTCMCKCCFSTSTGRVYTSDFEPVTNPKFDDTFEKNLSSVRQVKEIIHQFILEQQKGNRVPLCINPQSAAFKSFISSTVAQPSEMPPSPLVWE

[5] = molecular target: T5, panel of 374 wild-type kinases (Homo sapiens, UniProt P11802)
T5 construct: purchased Reaction Biology Corporation
T5 sequence (P11802 whole entry): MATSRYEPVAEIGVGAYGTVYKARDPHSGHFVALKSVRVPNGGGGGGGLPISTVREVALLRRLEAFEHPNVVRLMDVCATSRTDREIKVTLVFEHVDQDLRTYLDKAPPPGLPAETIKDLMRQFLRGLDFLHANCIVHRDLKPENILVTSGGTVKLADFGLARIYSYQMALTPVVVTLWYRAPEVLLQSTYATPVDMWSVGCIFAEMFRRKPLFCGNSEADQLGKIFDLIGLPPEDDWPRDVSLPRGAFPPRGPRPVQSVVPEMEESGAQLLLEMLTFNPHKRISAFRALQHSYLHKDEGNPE

[6] = molecular target: T6, panel of 374 wild-type kinases (Homo sapiens, UniProt Q13163); conditions: read-out: % Enzyme Activity (relative to DMSO controls), MEK5
T6 construct: purchased Reaction Biology Corporation
T6 sequence (Q13163 1-448): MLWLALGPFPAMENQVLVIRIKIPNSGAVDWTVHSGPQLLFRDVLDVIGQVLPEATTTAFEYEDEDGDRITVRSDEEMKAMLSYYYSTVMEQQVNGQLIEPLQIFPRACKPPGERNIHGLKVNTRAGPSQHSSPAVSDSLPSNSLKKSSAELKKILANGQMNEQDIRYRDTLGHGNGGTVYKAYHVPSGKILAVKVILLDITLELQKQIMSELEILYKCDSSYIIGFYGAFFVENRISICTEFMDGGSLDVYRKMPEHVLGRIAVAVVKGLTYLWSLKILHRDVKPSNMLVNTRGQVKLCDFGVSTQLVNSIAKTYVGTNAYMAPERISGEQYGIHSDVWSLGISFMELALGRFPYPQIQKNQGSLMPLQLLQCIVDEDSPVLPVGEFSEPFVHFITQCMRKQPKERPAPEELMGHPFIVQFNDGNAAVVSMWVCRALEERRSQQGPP

[7] = molecular target: T7, panel of 374 wild-type kinases (Homo sapiens, UniProt Q9HBY8); conditions: read-out: % Enzyme Activity (relative to DMSO controls), kinase SGK2
T7 construct: purchased Reaction Biology Corporation
T7 sequence (Q9HBY8 whole entry): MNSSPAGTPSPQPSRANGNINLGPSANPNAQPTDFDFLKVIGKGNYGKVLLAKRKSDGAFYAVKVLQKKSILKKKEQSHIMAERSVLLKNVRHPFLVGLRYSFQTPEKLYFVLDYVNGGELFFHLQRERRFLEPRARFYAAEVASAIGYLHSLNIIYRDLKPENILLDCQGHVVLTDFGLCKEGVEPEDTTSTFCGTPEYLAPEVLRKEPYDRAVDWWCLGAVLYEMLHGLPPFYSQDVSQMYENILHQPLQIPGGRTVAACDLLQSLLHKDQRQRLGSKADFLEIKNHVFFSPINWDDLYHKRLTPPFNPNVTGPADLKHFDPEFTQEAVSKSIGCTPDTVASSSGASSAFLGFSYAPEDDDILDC

[8] = molecular target: T8, panel of 374 wild-type kinases (Homo sapiens, UniProt O96013); conditions: read-out: % Enzyme Activity (relative to DMSO controls), kinase PAK4
T8 construct: purchased Reaction Biology Corporation
T8 sequence (O96013 whole entry): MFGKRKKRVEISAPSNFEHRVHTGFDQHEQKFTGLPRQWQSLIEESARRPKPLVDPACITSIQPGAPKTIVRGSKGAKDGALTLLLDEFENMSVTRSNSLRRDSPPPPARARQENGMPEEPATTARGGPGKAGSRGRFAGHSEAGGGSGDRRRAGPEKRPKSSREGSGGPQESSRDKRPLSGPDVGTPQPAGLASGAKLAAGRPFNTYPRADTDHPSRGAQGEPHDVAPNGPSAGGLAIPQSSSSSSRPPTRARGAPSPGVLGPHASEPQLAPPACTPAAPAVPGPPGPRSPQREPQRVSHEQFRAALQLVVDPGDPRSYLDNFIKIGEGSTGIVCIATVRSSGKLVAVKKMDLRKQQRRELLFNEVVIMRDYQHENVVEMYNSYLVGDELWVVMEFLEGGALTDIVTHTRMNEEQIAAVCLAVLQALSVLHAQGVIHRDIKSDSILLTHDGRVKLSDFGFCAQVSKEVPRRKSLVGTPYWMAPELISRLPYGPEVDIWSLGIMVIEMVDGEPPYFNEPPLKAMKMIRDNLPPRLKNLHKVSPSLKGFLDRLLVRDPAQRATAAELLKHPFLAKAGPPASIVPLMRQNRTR

[9] = read-out: % Enzyme Activity (relative to DMSO controls), CDK4/cyclin D1
[10] = read-out: % Enzyme Activity (relative to DMSO controls), CDK4/cyclin D3

SMILES | remaining activity at 5 µM [1] [%] | remaining activity at 5 µM [2] [%] | remaining activity at 5 µM [3] [%] | remaining activity at 5 µM [4] [%] | remaining activity at 5 µM [5, 9] [%] | remaining activity at 5 µM [5, 10] [%] | remaining activity at 5 µM [6] [%] | remaining activity at 5 µM [7] [%] | remaining activity at 5 µM [8] [%] | remaining activity at 10 µM ([1]; 10 uM) [%] | remaining activity at 10 µM ([2]; 10 uM) [%] | remaining activity at 10 µM ([3]; 10 uM) [%] | remaining activity at 10 µM ([4]; 10 uM) [%] | remaining activity at 10 µM [5, 9] [%] | remaining activity at 10 µM [5, 10] [%] | remaining activity at 10 µM ([6]; 10 uM) [%] | remaining activity at 10 µM ([7]; 10 uM) [%] | remaining activity at 10 µM ([8]; 10 uM) [%]
O=C(Nc1cnn(-c2csc(C(=O)NC3COC3)c2)c1)Nc1ccccc1Cl [Compound 17, 4-(4-(3-(2-chlorophenyl)ureido)-1H-pyrazol-1-yl)-N-(oxetan-3-yl)thiophene-2-carboxamide] | 101 | 34.1 | 95.8 | 99.5 | 92.2 | 98.2 | 98.2 | 101 | 98.9 | – | – | – | – | – | – | – | – | –
Cc1sc(C(=O)NC2COC2)cc1-n1cc(NC(=O)Nc2c(F)cccc2Cl)cn1 [Compound 27, 4-(4-(3-(2-chloro-6-fluorophenyl)ureido)-1H-pyrazol-1-yl)-5-methyl-N-(oxetan-3-yl)thiophene-2-carboxamide] | – | – | – | – | – | – | – | – | – | 93.3 | 51.9 | 102 | 85.2 | 78 | 96.5 | 96.8 | 97.2 | 106
O=C(Nc1cnn(-c2csc(C(=O)NC3COC3)c2)c1)Nc1c(F)cccc1Cl [Compound 25, 4-(4-(3-(2-chloro-6-fluorophenyl)ureido)-1H-pyrazol-1-yl)-N-(oxetan-3-yl)thiophene-2-carboxamide] | 88.2 | 22.7 | 94.9 | 87.4 | 90.3 | 79.4 | 103 | 88.6 | 107 | – | – | – | – | – | – | – | – | –

Source: US20240246942A1, “KINASE INHIBITORS FOR THE TREATMENT OF NEURODEGENERATIVE DISEASES” (priority 2020, published 2024)
